Experimental data taken from patent US20120035247A1, “RNA Interference Mediated Inhibition of Signal Transducer and Activator of Transcription 6 (STAT6) Gene Expression Using Short Interfering Nucleic Acid (siNA)” (Merck Sharp & Dohme Corp., priority 2009, published 2012).
[invAb] = inverted abasic unit; m = 2'-O-methyl; r = 2'-OH (RNA); f = 2'-fluoro

Columns and labels:
STAT6 mRNA [1] = experiment: STAT6 siNA screen in mouse NIH 3T3 cells, STAT6 mRNA by quantitative RT-PCR (Taqman); type: cell-based; conditions: mouse NIH3T3 cells, 10 nM siNA, 24 hrs, normalized to GAPDH and non-targeting control, n = 2
Outline: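 NIH 3T3 cells, 5000/well, transfected after 24 h with siNA (10 nM final) via RNAiMax and harvested 24 h later. STAT6 mRNA quantified by TaqMan RT-qPCR with GAPDH; knock-down by comparative Ct (2^−ΔΔCt) against non-targeting control siNA.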

STAT6 mRNA [2] = experiment: STAT6 siNA screen and dose response in human A549 cells, STAT6 mRNA by quantitative RT-PCR (Taqman); type: cell-based; conditions: human A549 cells, 10 nM siNA, 24 hrs, normalized to GAPDH and non-targeting control, mean ± S.D., n = 3
Outline: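 A549 cells were transfected with siNA–RNAiMax complexes at a final 10 nM siNA and incubated 24 h without a medium change. STAT6 mRNA was measured by TaqMan qRT-PCR on cell lysates. Knock-down was calculated by the comparative Ct (ΔΔCt) method against the non-targeting control siNA, with relative expression taken as 2^−ΔΔCt.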

Substance | % KD STAT6 (STAT6 mRNA [1]) [%] | % KD STAT6 (STAT6 mRNA [2]) [%]
30025-DC: STAT6 siNA duplex; sense SEQ ID NO: 114, antisense SEQ ID NO: 115; target AACGCUGUCUCCGGAGCUA, site 1848 (sense AACGCUGUCUCCGGAGCUATT; antisense UAGCUCCGGAGACAGCGUUUU; sense: DNA at AGT, 2'-fluoro at CU, [invAb] at 5' end, 3' end, backbone not given here; antisense: sugars from the 5' end rrrffffmmmmmfmmfmffmm, backbone not given here) [STAT6 siNA duplex; target AACGCUGUCUCCGGAGCUA, site 1848] | 34.2 ± 1.8 | 48.1 ± 7.5
29998-DC: STAT6 siNA duplex; sense SEQ ID NO: 60, antisense SEQ ID NO: 61; target CUUCUUAUGACCUUGGAAU, site 2274 (sense CUUCUUAUGACCUUGGAAUTT; antisense AUUCCAAGGUCAUAAGAAGUU; sense: DNA at AGT, 2'-fluoro at CU, [invAb] at 5' end, 3' end, backbone not given here; antisense: sugars from the 5' end rrrffmmmmffmfmmmmmmmm, backbone not given here) [STAT6 siNA duplex; target CUUCUUAUGACCUUGGAAU, site 2274] | −3.8 ± 9.2 | 32.5 ± 3.5
29994-DC: STAT6 siNA duplex; sense SEQ ID NO: 52, antisense SEQ ID NO: 53; target CUGAUCAUUGGCUUCAUCA, site 1880 (sense CUGAUCAUUGGCUUCAUCATT; antisense UGAUGAAGCCAAUGAUCAGUU; sense: DNA at AGT, 2'-fluoro at CU, [invAb] at 5' end, 3' end, backbone not given here; antisense: sugars from the 5' end rrrfmmmmffmmfmmffmmmm, backbone not given here) [STAT6 siNA duplex; target CUGAUCAUUGGCUUCAUCA, site 1880] | −13.9 ± 4.1 | 1.9 ± 15.7
30014-DC: STAT6 siNA duplex; sense SEQ ID NO: 92, antisense SEQ ID NO: 93; target GGCCUUUCAGCACCGCUGU, site 1755 (sense GGCCUUUCAGCACCGCUGUTT; antisense ACAGCGGUGCUGAAAGGCCUU; sense: DNA at AGT, 2'-fluoro at CU, [invAb] at 5' end, 3' end, backbone not given here; antisense: sugars from the 5' end rrrmfmmfmffmmmmmmffmm, backbone not given here) [STAT6 siNA duplex; target GGCCUUU…UGU, site 1755] | 30.6 ± 2.8 | −0.4 ± 17.4
30024-DC: STAT6 siNA duplex; sense SEQ ID NO: 112, antisense SEQ ID NO: 113; target CGCUGUCUCCGGAGCUACU, site 1850 (sense CGCUGUCUCCGGAGCUACUTT; antisense AGUAGCUCCGGAGACAGCGUU; sense: DNA at AGT, 2'-fluoro at CU, [invAb] at 5' end, 3' end, backbone not given here; antisense: sugars from the 5' end rrrmmffffmmmmmfmmfmmm, backbone not given here) [STAT6 siNA duplex; target CGCUGUCUCCGGAGCUACU, site 1850] | 19.5 ± 5.6 | 38.9 ± 11.2
30013-DC: STAT6 siNA duplex; sense SEQ ID NO: 90, antisense SEQ ID NO: 91; target CAUGGUGCCACCUUAUGAU, site 2280 (sense CAUGGUGCCACCUUAUGAUTT; antisense AUCAUAAGGUGGCACCAUGUU; sense: DNA at AGT, 2'-fluoro at CU, [invAb] at 5' end, 3' end, backbone not given here; antisense: sugars from the 5' end rrrmfmmmmfmmfmffmfmmm, backbone not given here) [STAT6 siNA duplex; target CAUGGUGCCACCUUAUGAU, site 2280] | 46.1 ± 2.2 | 19.6 ± 13.6
30019-DC: STAT6 siNA duplex; sense SEQ ID NO: 102, antisense SEQ ID NO: 103; target GAAACAGCAUCUUGCCGCA, site 506 (sense GAAACAGCAUCUUGCCGCATT; antisense UGCGGCAAGAUGCUGUUUCUU; sense: DNA at AGT, 2'-fluoro at CU, [invAb] at 5' end, 3' end, backbone not given here; antisense: sugars from the 5' end rrrmmfmmmmfmffmffffmm, backbone not given here) [STAT6 siNA duplex; target …UCUUGCCGCA, site 506] | 59.6 ± 7.3 | −9.5 ± 20.6
30002-DC: STAT6 siNA duplex; sense SEQ ID NO: 68, antisense SEQ ID NO: 69; target GAUAGAAACUCCUGCUAAU, site 766 (sense GAUAGAAACUCCUGCUAAUTT; antisense AUUAGCAGGAGUUUCUAUCUU; sense: DNA at AGT, 2'-fluoro at CU, [invAb] at 5' end, 3' end, backbone not given here; antisense: sugars from the 5' end rrrmmfmmmmmfffffmffmm, backbone not given here) [STAT6 siNA duplex; target GAUAGAAACUCCUGCUAAU, site 766] | −22.3 ± 3.5 | 55.9 ± 9.4
30017-DC: STAT6 siNA duplex; sense SEQ ID NO: 98, antisense SEQ ID NO: 99; target GAUGCUUUCUGUUACAACA, site 421 (sense GAUGCUUUCUGUUACAACATT; antisense UGUUGUAACAGAAAGCAUCUU; sense: DNA at AGT, 2'-fluoro at CU, [invAb] at 5' end, 3' end, backbone not given here; antisense: sugars from the 5' end rrrfmfmmfmmmmmmfmffmm, backbone not given here) [STAT6 siNA duplex; target GAUGCUUUCUGUUACAACA, site 421] | 85.1 ± 2 | −14.9 ± 9.1
29995-DC: STAT6 siNA duplex; sense SEQ ID NO: 54, antisense SEQ ID NO: 55; target CAGGAUGGCUCUCCACAGA, site 2009 (sense CAGGAUGGCUCUCCACAGATT; antisense UCUGUGGAGAGCCAUCCUGUU; sense: DNA at AGT, 2'-fluoro at CU, [invAb] at 5' end, 3' end, backbone not given here; antisense: sugars from the 5' end rrrmfmmmmmmffrffffmmm, backbone not given here) [STAT6 siNA duplex; target CAGGAUGGCUCUCCACAGA, site 2009] | −6.6 ± 1.3 | 20.4 ± 5.1
